We go through 39 compounds from ChEMBL document CHEMBL1152890, “Synthesis and evaluation of a novel series of heterocyclic oleanolic acid derivatives with anti-osteoclast formation activity” (Eur J Med Chem, 2009).

Assay type in all cases: functional
Assay [1] is described as follows: Antiosteoclast activity in ICR mouse osteoblast like cells co-cultured with bone marrow cells assessed as effect on 1-alpha,25(OH)2D3-induced TRAP-positive osteoclast like multinucleated cell formation at 20 uM after 6 days medium replaced every 2 days relative to control.
Assay [2] can be described thus: Antiosteoclast activity in ICR mouse osteoblast like cells co-cultured with bone marrow cells assessed as effect on 1-alpha,25(OH)2D3-induced TRAP-positive osteoclast like multinucleated cell formation at 2 uM after 6 days medium replaced every 2 days relative to control.
The nature of assay [3]: Antiosteoclast activity in ICR mouse osteoblast like cells co-cultured with bone marrow cells assessed as recovery of 1-alpha,25(OH)2D3-induced TRAP-positive osteoclast like multinucleated cell formation at 20 uM after 6 days drug removal after 2 days relative to control.

Molecules are shown by their SMILES.

Take `COC(=O)[C@H](CC(C)C)NC(=O)[C@]12CCC(C)(C)C[C@H]1C1=CC[C@@H]3[C@@]4(C)Cc5c([nH]c6ccccc56)C(C)(C)[C@@H]4CC[C@@]3(C)[C@]1(C)CC2`: in assay [1], the Activity was determined as 96.8%. As for `CC(C)[C@H](NC(=O)[C@]12CCC(C)(C)C[C@H]1C1=CC[C@@H]3[C@@]4(C)Cc5c([nH]c6ccccc56)C(C)(C)[C@@H]4CC[C@@]3(C)[C@]1(C)CC2)C(=O)O`, the Activity is reported as 6.1% in assay [1] and 70.8% in assay [2].

With `COC(=O)[C@@H](NC(=O)[C@]12CCC(C)(C)C[C@H]1C1=CC[C@@H]3[C@@]4(C)Cc5c([nH]c6ccc(Cl)cc56)C(C)(C)[C@@H]4CC[C@@]3(C)[C@]1(C)CC2)C(C)C`, the Activity is 21.1% in assay [1] and 90.8% in assay [2]. As to `C[C@H](NC(=O)[C@]12CCC(C)(C)C[C@H]1C1=CC[C@@H]3[C@@]4(C)Cc5nc6ccccc6nc5C(C)(C)[C@@H]4CC[C@@]3(C)[C@]1(C)CC2)C(=O)O`, the Activity in assay [1] was 96.5%. Same read-out and setting: the same measure for `C[C@H](NC(=O)[C@]12CCC(C)(C)C[C@H]1C1=CC[C@@H]3[C@@]4(C)Cc5nccnc5C(C)(C)[C@@H]4CC[C@@]3(C)[C@]1(C)CC2)C(=O)O`: 76.5%. For `CC(C)C[C@H](NC(=O)[C@]12CCC(C)(C)C[C@H]1C1=CC[C@@H]3[C@@]4(C)Cc5c([nH]c6ccc(Cl)cc56)C(C)(C)[C@@H]4CC[C@@]3(C)[C@]1(C)CC2)C(=O)O`, the figures for the Activity in assay [3], in assay [1] and in assay [2] were 0%, 0% and 71.6%, respectively.

For the compound `CC1(C)CC[C@]2(C(=O)NCC(=O)O)CC[C@]3(C)C(=CC[C@@H]4[C@@]5(C)Cc6c([nH]c7ccc(Cl)cc67)C(C)(C)[C@@H]5CC[C@]43C)[C@@H]2C1`, the Activity in assay [3] stood at 0%; in assay [1], 0%; in assay [2] it was 74.2%. Turning to `CC[C@H](C)[C@H](NC(=O)[C@]12CCC(C)(C)C[C@H]1C1=CC[C@@H]3[C@@]4(C)Cc5c([nH]c6ccccc56)C(C)(C)[C@@H]4CC[C@@]3(C)[C@]1(C)CC2)C(=O)O`, the Activity in assay [1] was 84.4%.

In the case of `CC1(C)CC[C@]2(C(=O)NCC(=O)O)CC[C@]3(C)C(=CC[C@@H]4[C@@]5(C)Cc6c([nH]c7ccccc67)C(C)(C)[C@@H]5CC[C@]43C)[C@@H]2C1`, the figures for the Activity in assay [1] and in assay [2] were 9% and 95.2%, respectively. Take `CC1(C)CC[C@]2(C(=O)N[C@@H](Cc3ccccc3)C(=O)O)CC[C@]3(C)C(=CC[C@@H]4[C@@]5(C)Cc6c([nH]c7ccc(Cl)cc67)C(C)(C)[C@@H]5CC[C@]43C)[C@@H]2C1`: the results for the Activity in assay [3], in assay [1] and in assay [2] were 0%, 0% and 77.8%, respectively. Turning to `CC(C)C[C@H](NC(=O)[C@]12CCC(C)(C)C[C@H]1C1=CC[C@@H]3[C@@]4(C)CCC(=O)C(C)(C)[C@@H]4CC[C@@]3(C)[C@]1(C)CC2)C(=O)O`, the Activity in assay [1] is on record as 100.6%. `CC1(C)CC[C@]2(C(=O)O)CC[C@]3(C)C(=CC[C@@H]4[C@@]5(C)Cc6c([nH]c7ccccc67)C(C)(C)[C@@H]5CC[C@]43C)[C@@H]2C1`: the Activity is given as 51.1% in assay [1] and 94.6% in assay [2]. The corresponding values for `CC1(C)CC[C@]2(C(=O)O)CC[C@]3(C)C(=CC[C@@H]4[C@@]5(C)CCC(=O)C(C)(C)[C@@H]5CC[C@]43C)[C@@H]2C1` [OLEANONIC ACID] are 1.4% and 79.2%.

In the case of `CC[C@H](C)[C@H](NC(=O)[C@]12CCC(C)(C)C[C@H]1C1=CC[C@@H]3[C@@]4(C)Cc5nc6ccccc6nc5C(C)(C)[C@@H]4CC[C@@]3(C)[C@]1(C)CC2)C(=O)OC`, the Activity in assay [1] turned out to be 78.5%. As for `COC(=O)[C@H](CC(C)C)NC(=O)[C@]12CCC(C)(C)C[C@H]1C1=CC[C@@H]3[C@@]4(C)CCC(=O)C(C)(C)[C@@H]4CC[C@@]3(C)[C@]1(C)CC2`, the results for the Activity in assay [3] and in assay [1] were 100.2% and 92.9%, respectively.

On to `CC1(C)CC[C@]2(C(=O)N[C@@H](Cc3ccccc3)C(=O)O)CC[C@]3(C)C(=CC[C@@H]4[C@@]5(C)Cc6c([nH]c7ccccc67)C(C)(C)[C@@H]5CC[C@]43C)[C@@H]2C1`, for which, in assay [1], the Activity is listed as 58%. The same measure, in the same setting: the same measure for `CC1(C)CC[C@]2(C(=O)NCC(=O)O)CC[C@]3(C)C(=CC[C@@H]4[C@@]5(C)Cc6nc7ccccc7nc6C(C)(C)[C@@H]5CC[C@]43C)[C@@H]2C1`: 91.9%. Take `COC(=O)[C@H](Cc1ccccc1)NC(=O)[C@]12CCC(C)(C)C[C@H]1C1=CC[C@@H]3[C@@]4(C)CCC(=O)C(C)(C)[C@@H]4CC[C@@]3(C)[C@]1(C)CC2`: the results for the Activity in assay [3] and in assay [1] were 99.1% and 82.3%, respectively. Take `CC1(C)CC[C@]2(C(=O)NCC(=O)O)CC[C@]3(C)C(=CC[C@@H]4[C@@]5(C)Cc6nccnc6C(C)(C)[C@@H]5CC[C@]43C)[C@@H]2C1`: the Activity in assay [1] is recorded as 85.1%. As for `CC(C)[C@H](NC(=O)[C@]12CCC(C)(C)C[C@H]1C1=CC[C@@H]3[C@@]4(C)Cc5nccnc5C(C)(C)[C@@H]4CC[C@@]3(C)[C@]1(C)CC2)C(=O)O`, the Activity in assay [1] is 83.5%. Same read-out and setting: the same measure for `CC[C@H](C)[C@H](NC(=O)[C@]12CCC(C)(C)C[C@H]1C1=CC[C@@H]3[C@@]4(C)Cc5c([nH]c6ccccc56)C(C)(C)[C@@H]4CC[C@@]3(C)[C@]1(C)CC2)C(=O)OC`: 98.4%; for `CC1(C)CC[C@]2(C(=O)N[C@@H](Cc3ccccc3)C(=O)O)CC[C@]3(C)C(=CC[C@@H]4[C@@]5(C)CCC(=O)C(C)(C)[C@@H]5CC[C@]43C)[C@@H]2C1`: 80.7%.

On to `COC(=O)CNC(=O)[C@]12CCC(C)(C)C[C@H]1C1=CC[C@@H]3[C@@]4(C)Cc5c([nH]c6ccc(Cl)cc56)C(C)(C)[C@@H]4CC[C@@]3(C)[C@]1(C)CC2`, for which the Activity in assay [1] is reported as 0%; in assay [2], 66.6%.

As for `CC1(C)CC[C@]2(C(=O)N[C@@H](Cc3ccccc3)C(=O)O)CC[C@]3(C)C(=CC[C@@H]4[C@@]5(C)Cc6nccnc6C(C)(C)[C@@H]5CC[C@]43C)[C@@H]2C1`, the Activity in assay [1] was 89.4%. Turning to `COC(=O)CNC(=O)[C@]12CCC(C)(C)C[C@H]1C1=CC[C@@H]3[C@@]4(C)Cc5nccnc5C(C)(C)[C@@H]4CC[C@@]3(C)[C@]1(C)CC2`, the Activity is 41.1% in assay [1] and 93.5% in assay [2]. For the compound `CC[C@H](C)[C@H](NC(=O)[C@]12CCC(C)(C)C[C@H]1C1=CC[C@@H]3[C@@]4(C)CCC(=O)C(C)(C)[C@@H]4CC[C@@]3(C)[C@]1(C)CC2)C(=O)OC`, the Activity in assay [1] turned out to be 1.4%; in assay [2] it was 94%.

With `COC(=O)[C@@H](NC(=O)[C@]12CCC(C)(C)C[C@H]1C1=CC[C@@H]3[C@@]4(C)Cc5c([nH]c6ccccc56)C(C)(C)[C@@H]4CC[C@@]3(C)[C@]1(C)CC2)C(C)C`, in assay [1], the Activity is reported as 99%. As for `COC(=O)[C@@H](NC(=O)[C@]12CCC(C)(C)C[C@H]1C1=CC[C@@H]3[C@@]4(C)CCC(=O)C(C)(C)[C@@H]4CC[C@@]3(C)[C@]1(C)CC2)C(C)C`, the Activity in assay [1] was 100.6%. With `COC(=O)[C@H](C)NC(=O)[C@]12CCC(C)(C)C[C@H]1C1=CC[C@@H]3[C@@]4(C)CCC(=O)C(C)(C)[C@@H]4CC[C@@]3(C)[C@]1(C)CC2`, the Activity in assay [1] amounted to 29.3%; in assay [2], 68.7%.

On to `CC1(C)CC[C@]2(C(=O)NCC(=O)O)CC[C@]3(C)C(=CC[C@@H]4[C@@]5(C)CCC(=O)C(C)(C)[C@@H]5CC[C@]43C)[C@@H]2C1`, for which the Activity in assay [1] is given as 103%. Still for that read-out and setting: the same measure for `CC(C)[C@H](NC(=O)[C@]12CCC(C)(C)C[C@H]1C1=CC[C@@H]3[C@@]4(C)CCC(=O)C(C)(C)[C@@H]4CC[C@@]3(C)[C@]1(C)CC2)C(=O)O`: 99.8%.

Take `CC1(C)CC[C@]2(C(=O)O)CC[C@]3(C)C(=CC[C@@H]4[C@@]5(C)Cc6nc7cc([N+](=O)[O-])ccc7nc6C(C)(C)[C@@H]5CC[C@]43C)[C@@H]2C1`: the Activity in assay [1] turned out to be 24.1%; in assay [2], 88.7%.

For `C[C@H](NC(=O)[C@]12CCC(C)(C)C[C@H]1C1=CC[C@@H]3[C@@]4(C)Cc5c([nH]c6ccccc56)C(C)(C)[C@@H]4CC[C@@]3(C)[C@]1(C)CC2)C(=O)O`, the Activity in assay [1] came to 21%; in assay [2], 90.2%. With `COC(=O)[C@H](CC(C)C)NC(=O)[C@]12CCC(C)(C)C[C@H]1C1=CC[C@@H]3[C@@]4(C)Cc5c([nH]c6ccc(Cl)cc56)C(C)(C)[C@@H]4CC[C@@]3(C)[C@]1(C)CC2`, in assay [1], the Activity worked out at 86%.

As for `CC[C@H](C)[C@H](NC(=O)[C@]12CCC(C)(C)C[C@H]1C1=CC[C@@H]3[C@@]4(C)CCC(=O)C(C)(C)[C@@H]4CC[C@@]3(C)[C@]1(C)CC2)C(=O)O`, the Activity in assay [1] was 100.3%. Turning to `CC[C@H](C)[C@H](NC(=O)[C@]12CCC(C)(C)C[C@H]1C1=CC[C@@H]3[C@@]4(C)Cc5c([nH]c6ccc(Cl)cc56)C(C)(C)[C@@H]4CC[C@@]3(C)[C@]1(C)CC2)C(=O)OC`, the Activity in assay [1] was determined as 82.4%. Same read-out and setting: the same measure for `C[C@H](NC(=O)[C@]12CCC(C)(C)C[C@H]1C1=CC[C@@H]3[C@@]4(C)CCC(=O)C(C)(C)[C@@H]4CC[C@@]3(C)[C@]1(C)CC2)C(=O)O`: 100%. Turning to `COC(=O)[C@H](C)NC(=O)[C@]12CCC(C)(C)C[C@H]1C1=CC[C@@H]3[C@@]4(C)Cc5c([nH]c6ccc(Cl)cc56)C(C)(C)[C@@H]4CC[C@@]3(C)[C@]1(C)CC2`, the Activity amounted to 10.1% in assay [1] and 79.9% in assay [2]. Consider `CC1(C)CC[C@]2(C(=O)N[C@@H](Cc3ccccc3)C(=O)O)CC[C@]3(C)C(=CC[C@@H]4[C@@]5(C)Cc6nc7ccccc7nc6C(C)(C)[C@@H]5CC[C@]43C)[C@@H]2C1`, for which the Activity in assay [1] was 75.4%.
